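How tested: cells in 96-well plates exposed to compound for 48 hours at five concentrations. The concentration for 50% growth inhibition is given as GI50. TGI denotes the concentration required for complete inhibition of growth.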 Where a SMILES comes first, the peptide text is derived from it. [ ]: non-standard residue; d: D form. The star is where a group is joined. Octanoyl = CCCCCCCC(=O)*; Aib = CC(C)(N)C(=O)O; tBu = CC(C)(C)*

Some test systems named below: OVCAR-3 ovarian; RXF 393 renal; MDA-N; BT-549 breast; SK-MEL-2 melanoma; TK-10 renal; MDA-MB-435; NCI/ADR-RES ovarian; SF-539 CNS; MALME-3M melanoma; CAKI-1 renal; OVCAR-4 ovarian; NCI-H23 lung; SW-620 colon; RPMI-8226 leukemia; SK-OV-3 ovarian.
Common to all, as to test: NCI-60 cell line screen, 48 h

As for `COc1ccccc1Cn1nc(OC)c2cc([N+](=O)[O-])ccc21`, the TGI in the test with OVCAR-3 ovarian is over 100 µM; in the test with RXF 393 renal it was 11.2 µM; in the test with MDA-N, over 100 µM; in the test on BT-549 breast, 46.2 µM; with SK-MEL-2 melanoma it was over 57.5 µM; with TK-10 renal it was 60.8 µM. The TGI in the test on MDA-MB-435 was over 100 µM; with NCI/ADR-RES ovarian, over 100 µM; in the test with SF-539 CNS, over 53.5 µM; with MALME-3M melanoma, over 100 µM; with CAKI-1 renal it was over 53.6 µM; in the test on OVCAR-4 ovarian, over 100 µM. In addition, the TGI in the test on NCI-H23 lung was over 89.2 µM; with SW-620 colon it was over 100 µM.

As for `COc1cccc(N2C(=O)CSC2c2cc(OC)c(OC)c(OC)c2)c1` (stereo not drawn), the TGI with OVCAR-3 ovarian was 66.2 µM; in the test on RPMI-8226 leukemia it was over 100 µM; with MDA-N, 37.1 µM; with BT-549 breast it was 64.6 µM; in the test on SK-MEL-2 melanoma it was over 100 µM; in the test on TK-10 renal it was over 100 µM. Besides, the TGI in the test with SK-OV-3 ovarian was over 100 µM; in the test with MDA-MB-435, 17.6 µM; in the test with NCI/ADR-RES ovarian it was 91.4 µM; in the test with SF-539 CNS it was over 100 µM; in the test with CAKI-1 renal it was over 100 µM; in the test on OVCAR-4 ovarian, over 100 µM. The TGI in the test on NCI-H23 lung and with SW-620 colon was over 100 µM in each case.

In the case of `Oc1c(C2=N[C@H]3CCCC[C@@H]3N2)ccc2ccccc12`, the TGI with OVCAR-3 ovarian, in the test with RPMI-8226 leukemia, in the test with MDA-N, in the test on BT-549 breast, with SK-MEL-2 melanoma and in the test on TK-10 renal was over 100 µM in each case. The TGI in the test on SK-OV-3 ovarian is over 100 µM; in the test with MDA-MB-435 it was over 100 µM; with NCI/ADR-RES ovarian, over 93.9 µM; in the test on SF-539 CNS, over 100 µM; in the test on MALME-3M melanoma it was over 100 µM; in the test with CAKI-1 renal, over 100 µM. For the same compound, the TGI in the test on OVCAR-4 ovarian, with NCI-H23 lung and with SW-620 colon was over 100 µM throughout.

`O=c1ccn2n1CCCCC2`: the TGI in the test on OVCAR-3 ovarian, in the test with RXF 393 renal, in the test with RPMI-8226 leukemia, in the test with MDA-N, with SK-MEL-2 melanoma and in the test on TK-10 renal was over 100 µM each time. In addition, the TGI in the test on SK-OV-3 ovarian, in the test on MDA-MB-435, in the test on NCI/ADR-RES ovarian, in the test with SF-539 CNS, in the test on MALME-3M melanoma and in the test on CAKI-1 renal was over 100 µM in each case. Besides, the TGI with OVCAR-4 ovarian, with NCI-H23 lung and in the test on SW-620 colon was over 100 µM in each case.

As to `CN(/N=C/C=N/N(C)C1=NCCCCN1)C1=NCCCCN1`, the TGI with OVCAR-3 ovarian, with RXF 393 renal, in the test with MDA-N, with BT-549 breast, with TK-10 renal and with SK-OV-3 ovarian was over 100 µM in each case. For the same compound, the TGI with MDA-MB-435, with NCI/ADR-RES ovarian, in the test on SF-539 CNS, with MALME-3M melanoma, in the test with CAKI-1 renal and in the test on OVCAR-4 ovarian was over 100 µM in each case. Besides, the TGI with NCI-H23 lung and in the test on SW-620 colon was over 100 µM each time.

For the compound `CCCCCCCC(=O)NC(C)(C)C(=O)NC(COC(C)(C)C)C(=O)NC(CC(C)C)C(=O)NC(C)(C)C(=O)NC(COC(C)(C)C)C(=O)NC(COC(C)(C)C)C(=O)NC(CC(C)C)C(=O)NC(C)(C)C(=O)NC(COC(C)(C)C)C(=O)NC(C(=O)NC(CC(C)C)C(=O)OC)C(C)CC` (stereo not drawn) (Octanoyl-[Aib]S(tBu)L[Aib]S(tBu)S(tBu)L[Aib]S(tBu)IL-OMe; configuration not given here), the TGI was 10.9 µM in the test on OVCAR-3 ovarian; 9.99 µM in the test on RXF 393 renal; 11.2 µM with RPMI-8226 leukemia; over 25 µM with MDA-N; 13.1 µM in the test on BT-549 breast; 13.5 µM in the test with SK-MEL-2 melanoma. Moreover, the TGI in the test on TK-10 renal is 21.8 µM; in the test with SK-OV-3 ovarian, over 25 µM; in the test with MDA-MB-435 it was over 25 µM; in the test on NCI/ADR-RES ovarian it was over 25 µM; in the test on SF-539 CNS, over 25 µM; in the test with CAKI-1 renal it was over 25 µM. The figures for the TGI in the test with OVCAR-4 ovarian, in the test on NCI-H23 lung and in the test with SW-620 colon were over 25 µM, 12.7 µM and over 25 µM, respectively.

Take `c1cncc(-c2ncc3cccnc3n2)c1`: the TGI in the test on OVCAR-3 ovarian, in the test on RXF 393 renal, in the test with RPMI-8226 leukemia, with MDA-N, with BT-549 breast and in the test with SK-MEL-2 melanoma was over 100 µM each time. For the same compound, the TGI in the test on TK-10 renal, in the test with SK-OV-3 ovarian, in the test on NCI/ADR-RES ovarian, with SF-539 CNS, in the test with MALME-3M melanoma and in the test with CAKI-1 renal was over 100 µM each time. For the same compound, the TGI in the test with OVCAR-4 ovarian, with NCI-H23 lung and in the test with SW-620 colon was over 100 µM throughout.

Take `CN(CCCCN(C)CCc1ccc(Cl)c(Cl)c1)CCCCN1CCCC1`: the TGI in the test with OVCAR-3 ovarian was found to be 4.34 µM; with RXF 393 renal, 3.03 µM; in the test on MDA-N it was 2.64 µM; in the test on BT-549 breast, 4.6 µM; in the test with SK-MEL-2 melanoma, 3.12 µM; in the test on TK-10 renal, 2.99 µM. The TGI is 6.05 µM in the test with SK-OV-3 ovarian; 0.904 µM with MDA-MB-435; 13.4 µM with NCI/ADR-RES ovarian; 3.46 µM with MALME-3M melanoma; 3.13 µM in the test with CAKI-1 renal; 3.66 µM in the test with OVCAR-4 ovarian. The TGI in the test with NCI-H23 lung was 3.41 µM; with SW-620 colon it was 3.02 µM.

Regarding `CC(=O)Oc1cc2c(cc1OC(C)=O)[C@H]1CC[C@]3(C)[C@@H](OC(C)=O)CC[C@H]3[C@@H]1CC2`, the TGI turned out to be 7.88 µM in the test with OVCAR-3 ovarian; 16.5 µM with RXF 393 renal; 8.43 µM with RPMI-8226 leukemia; 16.5 µM in the test with MDA-N; 11.2 µM in the test with BT-549 breast; 16.1 µM in the test with SK-MEL-2 melanoma. Further, the TGI with TK-10 renal stood at 20.8 µM; in the test on SK-OV-3 ovarian it was 21.7 µM; in the test with MDA-MB-435 it was 9.65 µM; in the test on NCI/ADR-RES ovarian, 29.5 µM; in the test with SF-539 CNS, 15.9 µM; in the test on CAKI-1 renal, 12.5 µM. For the same compound, the values for the TGI in the test with OVCAR-4 ovarian, in the test on NCI-H23 lung and with SW-620 colon were 19.7 µM, 22.9 µM and 15.4 µM, respectively. The GI50 in the test with MDA-MB-435 was 0.316 µM; with SF-539 CNS, 3.53 µM.

Values taken from PubChem BioAssay (NCI).
